Results taken from patent publication US11866416B2, “Streptococcus mutans glucosyl transferase inhibitors for dental caries therapy” (UAB Research Foundation, priority 2018, dated 2024).

Legend:
[1] = test system: S. mutans UA159; experiment: Rat model of dental caries; details: for bacterial colonization versus control group / body weight over the course of the study / buccal, sulcal, and proximal surface caries scores: 100 μM topically twice daily for 4 weeks; for oral tissue (mucosal and gingival tissues) at sacrifice, treated versus non-treated: 100 μM twice daily for 4 weeks
Protocol: Rat model of dental caries. S. mutans in vivo colonization and virulence were evaluated using a rat model of dental caries as previously described (Crowley, P. J., Brady, L. J., Michalek, S. M. & Bleiweis, A. S. Virulence of a spaP Mutant of Streptococcus mutans in a Gnotobiotic Rat Model. Infection and Immunity 67, 1201-1206 (1999)). […] Rats were then infected with S. mutans UA159 for three consecutive days and provided a caries-promoting Teklad Diet 305 containing 5% sucrose (Harlan Laboratories, Inc., Indianapolis, IN.) and sterile drinking water ad libitum. One group of rats was then treated with vehicle control while another group was topically treated with the lead compound at 100 μM twice daily for 4 weeks beginning 10 days post infection. Following each treatment, drinking water was withheld for 60 min. Animals were weighed at weaning and at the termination of the experiment. The animals were euthanized, their mandibles excised for microbiological analysis of plaque samples on MS agar plates and BAP and for scoring of caries by the method of Keyes (Keyes, P. H. Dental caries in the molar teeth of rats. II. A method for diagnosing and scoring several types of lesions simultaneously. Journal of dental research 37, 1088-1099 (1958)). All experimental protocols were approved by University of Alabama at Birmingham Institutional Animal Care and Use Committee. The methods were carried out in accordance with the relevant guidelines and regulations.
Dental caries rat model. […] At the age of 20 days, rat pups were removed from isolators and randomly assigned into five groups. […] Rats were then infected with S. mutans UA159 for three consecutive days and provided a caries-promoting Diet 305, which contains 5% sucrose (TD.80406, diet with 62% corn starch, Harlan Laboratories, Madison, Wis.) and sterile drinking water ad libitum. The rats were then treated with the stilbene, water, or not treated respective of their study group as described above at 100 μM twice daily for 4 weeks beginning 10 days post infection. Drinking water was withheld for one hour after each treatment. Rats were weighed at weaning and after 45 days at the termination of the experiment. The animals were euthanized, their mandibles excised for microbiological analysis of plaque samples on MS agar plates and BAP and for scoring of caries by the method of Keyes. All experimental protocols were approved by the University of Alabama at Birmingham Institutional Animal Care and Use Committee and in accordance with the relevant guidelines and regulations.

[2] = test system: S. mutans Gtfs; experiment: Gtf zymographic assay with SDS-PAGE; assay type: biochemical, Streptococcus mutans; details: for glucan production in zymogram assay: stilbenes, versus DMSO control
Protocol: A well-established zymographic assay was used to determine enzymatic activity of Gtfs (Mattos-Graner et al. (2004) J. Clin. Microbiol. 42, […]). In brief, overnight S. mutans UA159 cultures were diluted 1:100 in fresh 5 mL THB with 50 μL of selective compounds at a series of concentrations. Treated bacteria were grown to OD470 of 1.0, and spun down by centrifugation at 4° C., and culture supernatants were collected and filtered through a 0.22-μm-pore-size filter membrane to remove residual bacterial cells and dialyzed at 4° C. against 0.02 M sodium phosphate buffer (pH 6.8), with 10 μM phenylmethylsulfonyl fluoride (PMSF), followed by a second dialysis against 0.2 mM sodium phosphate containing 10 μM PMSF. After dialysis, 4 mL of samples were concentrated to 40 μL by 100K Amicon Ultra-4 centrifugal filter (Merck Millipore Ltd.). For electrophoresis and zymographic analysis, 10 μL of each concentrated culture supernatant was applied to 8% SDS-PAGE in duplicate. One gel was used for protein staining with Coomassie blue dye, while the other one was subjected to zymographic assay as described (Mattos-Graner et al. (2004) J. Clin. Microbiol. 42, […]). The resultant white opaque glucan bands were visualized against a black background.
Inhibition of the activity of Gtfs determined by zymographic assays. Well established zymographic assay was used to determine enzymatic activity of Gtfs. In brief, overnight S. mutans UA159 cultures were diluted 1:100 in fresh 5 mL THB. Bacteria were grown to OD470 of 1.0, and spun down by centrifugation at 4° C. and culture supernatants were collected and filtered through a 0.22-μm-pore-size filter membrane to remove residual bacterial cells and dialyzed at 4° C. against 0.02 M sodium phosphate buffer (pH 6.8), with 10 μM phenylmethylsulfonyl fluoride (PMSF), followed by a second dialysis against 0.2 mM sodium phosphate containing 10 μM PMSF. After dialysis, 4 mL of samples were concentrated to 40 μL by 100K Amicon Ultra-4 centrifugal filter (Merk Millipore Ltd.). For electrophoresis and zymographic analysis, 10 μL of each concentrated culture supernatant was applied to 8% SDS-PAGE in duplicate. One gel was used for protein staining with Coomassie blue dye, while the other one was subjected to zymographic assay. For zymogram analysis, following electrophoretic separation, gels were washed twice for 15 min each with renaturing buffer containing 2.5% Triton X-100. Gels were then incubated for 18 h at 37° C. with 0.2 M sodium phosphate buffer (pH 6.5) containing 0.2% dextran T70, 5% sucrose, and varying concentrations of the small molecule inhibitors. The reactions were stopped by washing gels with distilled water at 4° C. for 10 min, and digital images of the resultant white opaque glucan bands were visualized against a black background and captured using a digital camera.
Inhibition of the activity of Gtfs determined by zymographic assays. A well-established zymographic assay was used to determine enzymatic activity of Gtfs (Mattos-Graner, R. O., Napimoga, M. H., Fukushima, K., Duncan, M. J., Smith, D. J., J Clin Microbiol, 2004, 42, 4586). In brief, overnight S. mutans UA159 cultures were diluted 1:100 in fresh 5 mL THB with 50 μL of selective compounds at a series of concentrations. Treated bacteria were grown to OD470 of 1.0, and spun down by centrifugation at 4° C., and culture supernatants were collected and filtered through a 0.22-μm-pore-size filter membrane to remove residual bacterial cells and dialyzed at 4° C. against 0.02 M sodium phosphate buffer (pH 6.8), with 10 μM phenylmethylsulfonyl fluoride (PMSF), followed by a second dialysis against 0.2 mM sodium phosphate containing 10 μM PMSF. After dialysis, 4 mL of samples were concentrated to 40 μL by 100K Amicon Ultra-4 centrifugal filter (Merk Millipore Ltd.). For electrophoresis and zymographic analysis, 10 μL of each concentrated culture supernatant was applied to 8% SDS-PAGE in duplicate. […]

Row | SMILES | bacterial colonization versus control group [1] | body weight over the course of the study [1] | buccal, sulcal, and proximal surface caries scores [1] | oral tissue (mucosal and gingival tissues) at sacrifice, treated versus non-treated [1] | glucan production in zymogram assay [2] | glucan production of the Gtfs in zymographic assay ([2]; 25 μM, Gtfs from wild type S. mutans) | glucan bands in zymographic assay ([2]; 50 μM, Gtfs from S. mutans UA159 supernatants)
1 | Oc1cc(O)cc(/C=C/c2ccc(O)c(O)c2)c1 [Piceatannol] | not statistically significant | did not lose weight | significant reduction | no obvious differences | greatly reduced glucan production | – | –
2 | Oc1ccc(/C=C/c2cc(O)cc(O)c2)cc1 [Resveratrol, reference compound] | not statistically significant | did not lose weight | significant reduction | no obvious differences | marginal inhibition | – | –
3 | NC(=O)c1ccccc1NC(=O)c1cc2cc([N+](=O)[O-])ccc2s1 [#G43] | did not reach the statistically significant difference | did not lose weight | significantly reduced | – | – | drastically reduced the glucan production | drastically reduced the glucan bands
